Experimental data published in ChEMBL document CHEMBL1158356, “Synthesis, anti-tuberculosis activity and 3D-QSAR study of amino acid conjugates of 4-(adamantan-1-yl) group containing quinolines” (Eur J Med Chem, 2009).

Tests used:
[1] = system: Mycobacterium tuberculosis; test: Antimycobacterial activity against isoniazid-resistant Mycobacterium tuberculosis H37Rv ATCC 27294 at 3.125 ug/ml; assay type: functional
[2] = system: Mycobacterium tuberculosis; test: Antimycobacterial activity against isoniazid-resistant Mycobacterium tuberculosis H37Rv ATCC 27294 at 1 ug/ml; assay type: functional

N=C(N)NCCC[C@H](NC(=O)c1cc(C23CC4CC(CC(C4)C2)C3)c2ccccc2n1)C(=O)NN
inhibition at 3.125 µg/mL [1]: 99% | inhibition at 1 µg/mL [2]: 60%
